In patent US10800732B2, “Substituted malonamides and their use as antibacterial drugs” (National Taiwan University, priority 2015, dated 2020):
In brackets after ≈: the same amount, converted by molar mass. Read-outs that look alike come from different tables or passages of the source.

Experiments:
S. aureus NCTC 8325 [1] = assay: MIC, S. aureus NCTC 8325 (CLSI broth microdilution / agar dilution); type: cell-based, Staphylococcus aureus
[2] = test system: S. epidermidis ATCC 12228; assay: MIC, S. epidermidis ATCC 12228; type: cell-based; details: Staphylococcus epidermidis, ATCC12228; S. epidermidis ATCC 12228; read-out: MIC
[3] = test system: S. epidermidis ATCC 35984; assay: MIC, S. epidermidis ATCC 35984; type: cell-based; details: Staphylococcus epidermidis, ATCC35984; S. epidermidis ATCC 35984; read-out: MIC
MRSA ATCC 33592 = assay: MIC, MRSA ATCC 33592; type: cell-based, methicillin-resistant Staphylococcus aureus; details: Staphylococcus aureus, MRSA ATCC 33592, read-out: MIC
MRSA ATCC 49476 = assay: MIC, MRSA ATCC 49476; type: cell-based, methicillin-resistant Staphylococcus aureus; details: Staphylococcus aureus; MRSA ATCC 49476; read-out: MIC
MRSA SCCmec VT = assay: MIC, MRSA SCCmec VT; type: cell-based, methicillin-resistant Staphylococcus aureus; details: Staphylococcus aureus; MRSA SCCmec VT; read-out: MIC
S. aureus NCTC 8325 [4] = type: cell-based, Staphylococcus aureus; details: for time to over 64-fold MIC change: sub-inhibitory concentration, serial passage; for fold MIC change (resistance): sub-inhibitory concentration for 30 consecutive days
HEK-293 = assay: Antiproliferative activity, HEK-293; type: cell-based, human; details: HEK-293, antiproliferative
Description: (§1) In addition to the antibacterial activities, the cytotoxic effects of these malonate derivatives on human cancer cell lines were also assessed.

K-562 = assay: Antiproliferative activity, K-562; type: cell-based, human; details: K-562, antiproliferative
Description: as §1

[5] = Staphylococcus aureus, NCTC8325, S. aureus NCTC 8325, read-out: MIC
[6] = Staphylococcus aureus, MSSA NCTC 8325, Table 6, read-out: MIC
[7] = Staphylococcus aureus, NCTC8325

| Molecule | MIC (S. aureus NCTC 8325 [1]; [6]) | MIC (MRSA ATCC 33592; Table 6) | also measured |
| --- | --- | --- | --- |
| CC1(C)S[C@@H]2[C@H](NC(=O)[C@H](N)c3ccccc3)C(=O)N2[C@H]1C(=O)O [Ampicillin] |  |  | MIC (S. aureus NCTC 8325 [1]; [5]): 0.25 µg/mL (≈ 0.715 µM); MIC [2]: 32 µg/mL (≈ 91.6 µM); MIC [3]: > 32 µg/mL; MIC (MRSA ATCC 33592): > 64 µg/mL; MIC (MRSA ATCC 49476): > 64 µg/mL; MIC (MRSA SCCmec VT): 64 µg/mL (≈ 183 µM); time to over 64-fold MIC change (S. aureus NCTC 8325 [4]): ≤ 27 days |
| CN(C)[C@@H]1C(O)=C(C(N)=O)C(=O)[C@@]2(O)C(O)=C3C(=O)c4c(O)cccc4[C@@](C)(O)[C@H]3C[C@@H]12 [Tetracycline] |  |  | MIC [2]: 8 µg/mL (≈ 18 µM); MIC [3]: 0.25 µg/mL (≈ 0.563 µM); MIC (MRSA ATCC 33592): > 64 µg/mL; MIC (MRSA ATCC 49476): > 64 µg/mL; MIC (MRSA SCCmec VT): 32 µg/mL (≈ 72 µM) |
| C#Cc1cccc(NC(=O)C(CC=C)C(=O)Nc2cccc(C#C)c2)c1 [SC5038, 2-allyl-N^1,N^3-bis(3-ethynylphenyl)malonamide] | > 32 µg/mL | > 32 µg/mL |  |
| O=C(Nc1cccc(Cl)c1)C(CCCl)C(=O)Nc1cccc(Cl)c1 [SC5027, 2-(2-chloroethyl)-N^1,N^3-bis(3-chlorophenyl)malonamide] | > 8 µg/mL |  |  |
| CCCNC(=O)C(CCCl)C(=O)Nc1ccc(Cl)c(C(F)(F)F)c1 (centres unmarked) [SC5049, N1-(4-chloro-3-(trifluoromethyl)phenyl)-2-(2-chloroethyl)-N3-propylmalonamide] | > 64 µg/mL | > 64 µg/mL |  |
| N^1,N^3-bis(4-pentafluorosulfurphenyl)-2-(2-chloroethyl)malonamide [SC5033] |  |  | MIC (S. aureus NCTC 8325 [1]; MSSA NCTC 8325, Table 6): 32 µg/mL |
| C=CCC(C(=O)Nc1ccc(Cl)c(C(F)(F)F)c1)C(=O)Nc1ccc(Cl)c(C(F)(F)F)c1 [SC5037, 2-allyl-N^1,N^3-bis(4-chloro-3-(trifluoromethyl)phenyl)malonamide] | 8 µg/mL (≈ 16 µM) | > 32 µg/mL |  |
| CO[C@H]1/C=C/O[C@@]2(C)Oc3c(C)c(O)c4c(O)c(c(/C=N/N5CCN(C)CC5)c(O)c4c3C2=O)NC(=O)/C(C)=C\C=C\[C@H](C)[C@H](O)[C@@H](C)[C@@H](O)[C@@H](C)[C@H](OC(C)=O)[C@@H]1C [Rifampicin] |  |  | MIC (S. aureus NCTC 8325 [1]; [7]): 0.125 µg/mL (≈ 0.152 µM); MIC [2]: < 0.004 µg/mL; MIC (MRSA ATCC 33592): > 64 µg/mL; MIC (MRSA ATCC 49476): 0.25 µg/mL (≈ 0.304 µM); MIC (MRSA SCCmec VT): 0.5 µg/mL (≈ 0.608 µM); time to over 64-fold MIC change (S. aureus NCTC 8325 [4]): ≤ 6 days |
| O=C(Nc1cc(C(F)(F)F)cc(C(F)(F)F)c1)C(CCCl)C(=O)Nc1cc(C(F)(F)F)cc(C(F)(F)F)c1 [SC5032, N,N^3-bis(3,5-bis(trifluoromethyl)phenyl)-2-(2-chloroethyl)malonamide] | 32 µg/mL (≈ 54.4 µM) |  |  |
| O=C(Nc1ccc(Cl)c(C(F)(F)F)c1)C1(C(=O)Nc2ccc(Cl)c(C(F)(F)F)c2)CC1 [SC5020, N,N′-bis(4-chloro-3-(trifluoromethyl)phenyl)cyclopropane-1,1-dicarboxamide] | > 8 µg/mL |  |  |
| CCCNC(=O)C(CCCl)C(=O)NCCC [SC5046, 2-(2-chloroethyl)-N1,N3-dipropylmalonamide] | > 64 µg/mL | > 64 µg/mL |  |
| O=C(NC1CCCCC1)C(CCCl)C(=O)NC1CCCCC1 [SC5048, 2-(2-chloroethyl)-N1,N3-dicyclohexylmalonamide] | > 64 µg/mL | > 64 µg/mL |  |
| CCCCNC(=O)C(CCCl)C(=O)Nc1ccc(Cl)c(C(F)(F)F)c1 (centres unmarked) [SC5052, N1-butyl-N3-(4-chloro-3-(trifluoromethyl)phenyl)-2-(2-chloroethyl)malonamide] | > 64 µg/mL | > 64 µg/mL |  |
| CC[C@H]1OC(=O)[C@H](C)[C@@H](O[C@H]2C[C@@](C)(OC)[C@@H](O)[C@H](C)O2)[C@H](C)[C@@H](O[C@@H]2O[C@H](C)C[C@H](N(C)C)[C@H]2O)[C@](C)(O)C[C@@H](C)C(=O)[C@H](C)[C@@H](O)[C@]1(C)O [Erythromycin] |  |  | MIC (S. aureus NCTC 8325 [1]; [5]): 0.5 µg/mL (≈ 0.681 µM); MIC [2]: 4 µg/mL (≈ 5.45 µM); MIC [3]: 4 µg/mL (≈ 5.45 µM); MIC (MRSA ATCC 33592): > 64 µg/mL; MIC (MRSA ATCC 49476): > 64 µg/mL; MIC (MRSA SCCmec VT): > 64 µg/mL; time to over 64-fold MIC change (S. aureus NCTC 8325 [4]): ≤ 17 days |
| C#Cc1cccc(NC(=O)C(CCCl)C(=O)Nc2cccc(C#C)c2)c1 [SC5026, 2-(2-chloroethyl)-N^1,N^3-bis(3-ethynylphenyl)malonamide] | > 8 µg/mL |  |  |
| O=C(Nc1ccc([N+](=O)[O-])c(C(F)(F)F)c1)C(CCCl)C(=O)Nc1ccc([N+](=O)[O-])c(C(F)(F)F)c1 [SC5034, 2-(2-chloroethyl)-N^1,N^3-bis(4-nitro-3-(trifluoromethyl)phenyl)malonamide] | 1 µg/mL (≈ 1.84 µM) |  |  |
| O=C(N[C@H](CO)[C@H](O)c1ccc([N+](=O)[O-])cc1)C(Cl)Cl [Chloramphenicol] |  |  | MIC (S. aureus NCTC 8325 [1]; [5]): 4 µg/mL (≈ 12.4 µM); MIC [2]: 2 µg/mL (≈ 6.19 µM); MIC (MRSA ATCC 33592): 32 µg/mL (≈ 99 µM); MIC (MRSA ATCC 49476): 8 µg/mL (≈ 24.8 µM); MIC (MRSA SCCmec VT): 64 µg/mL (≈ 198 µM); fold MIC change (resistance) (S. aureus NCTC 8325 [4]): no resistance |
| C=CCC(C(=O)Nc1cccc(CC)c1)C(=O)Nc1cccc(CC)c1 [SC5039, 2-allyl-N^1,N^3-bis(3-ethylphenyl)malonamide] | > 32 µg/mL | > 32 µg/mL |  |

| Molecule | MIC (S. aureus NCTC 8325 [1]; [6]) | MIC (MRSA ATCC 33592; Table 6) | also measured |
| --- | --- | --- | --- |
| O=C(Nc1cc(Cl)cc(Cl)c1)C(CCCl)C(=O)Nc1cc(Cl)cc(Cl)c1 [SC5025, 2-(2-chloroethyl)-N^1,N^3-bis(3,5-dichlorophenyl)malonamide] | 0.25 µg/mL (≈ 0.55 µM) | 0.25 µg/mL (≈ 0.55 µM) |  |
| O=C(Nc1cccc(C(F)(F)F)c1)C(CCCl)C(=O)Nc1cccc(C(F)(F)F)c1 [SC5023, 2-(2-chloroethyl)-N^1,N^3-bis(3-(trifluoromethyl)phenyl)malonamide] | 2 µg/mL (≈ 4.42 µM) | 1 µg/mL (≈ 2.21 µM) |  |
| O=C(Nc1ccc(Cl)c(O)c1)C(CCCl)C(=O)Nc1ccc(Cl)c(O)c1 [SC5030, N^1,N^3-bis(4-chloro-3-hydroxyphenyl)-2-(2-chloroethyl)malonamide] | > 16 µg/mL |  |  |
| CCOC(=O)C1=C(N)Oc2ccc(Cl)cc2C1C(C#N)C(=O)OCC (centres unmarked) [SC79] |  |  | MIC (S. aureus NCTC 8325 [1]; S. aureus NCTC 8325, Table 2): 0.5 µg/mL (≈ 1.37 µM); IC50 (HEK-293): 2.22 µg/mL (≈ 6.09 µM); IC50 (K-562): 1.78 µg/mL (≈ 4.88 µM) |
| CC1COc2c(N3CCN(C)CC3)c(F)cc3c(=O)c(C(=O)O)cn1c23 (centres unmarked) [Ofloxacin] |  |  | MIC (S. aureus NCTC 8325 [1]; [7]): 0.125 µg/mL (≈ 0.346 µM); MIC [2]: 0.25 µg/mL (≈ 0.692 µM); MIC (MRSA ATCC 33592): 0.25 µg/mL (≈ 0.692 µM); MIC (MRSA ATCC 49476): 0.5 µg/mL (≈ 1.38 µM); MIC (MRSA SCCmec VT): 0.25 µg/mL (≈ 0.692 µM); fold MIC change (resistance) (S. aureus NCTC 8325 [4]): 8 fold |
| O=C(Nc1cccc([N+](=O)[O-])c1)C(CCCl)C(=O)Nc1cccc([N+](=O)[O-])c1 [SC5028, 2-(2-chloroethyl)-N^1,N^3-bis(3-nitrophenyl)malonamide] | > 64 µg/mL |  |  |
| C=CCNC(=O)C(CCCl)C(=O)NCC=C [SC5051, N1,N3-diallyl-2-(2-chloroethyl)malonamide] | > 64 µg/mL | > 64 µg/mL |  |
| O=C(Nc1cccc(O)c1)C(CCCl)C(=O)Nc1cccc(O)c1 [SC5031, 2-(2-chloroethyl)-N^1,N^3-bis(3-hydroxyphenyl)malonamide] | > 64 µg/mL |  |  |
| C#Cc1cccc(NC(=O)C2(C(=O)Nc3cccc(C#C)c3)CC2)c1 [SC5021, N,N′-bis(3-ethynylphenyl)cyclopropane-1,1-dicarboxamide] | 8 µg/mL (≈ 24.4 µM) |  |  |
| O=C(Nc1ccccc1)C(CCCl)C(=O)Nc1ccccc1 [SC5022, 2-(2-chloroethyl)-N^1,N^3-diphenylmalonamide] | > 8 µg/mL |  |  |
| O=C(Nc1cc(Cl)cc(Cl)c1)C(CCCl)C(=O)Nc1ccc([N+](=O)[O-])c(C(F)(F)F)c1 (centres unmarked) [SC5041, 2-(2-chloroethyl)-N^1-(3,5-dichlorophenyl)-N^3-(4-nitro-3-(trifluoromethyl)phenyl)malonamide] | 0.5 µg/mL (≈ 1 µM) | 0.5 µg/mL (≈ 1 µM) |  |
| O=C(Nc1ccc(OC(F)(F)F)cc1)C(CCCl)C(=O)Nc1ccc(OC(F)(F)F)cc1 [SC5024, 2-(2-chloroethyl)-N^1,N^3-bis(4-(trifluoromethoxy)phenyl)malonamide] | 1 µg/mL (≈ 2.06 µM) | 1 µg/mL (≈ 2.06 µM) |  |
| C=CCNC(=O)C(CCCl)C(=O)Nc1ccc(Cl)c(C(F)(F)F)c1 (centres unmarked) [SC5050, N1-allyl-N3-(4-chloro-3-(trifluoromethyl)phenyl)-2-(2-chloroethyl)malonamide] | > 64 µg/mL | > 64 µg/mL |  |
| O=C(Nc1ccc(Cl)c(C(F)(F)F)c1)C(CCCl)C(=O)NC1CCCCC1 (centres unmarked) [SC5053, N1-(4-chloro-3-(trifluoromethyl)phenyl)-2-(2-chloroethyl)-N3-cyclohexylmalonamide] | > 64 µg/mL | > 64 µg/mL |  |
| CCCCNC(=O)C(CCCl)C(=O)NCCCC [SC5047, N1,N3-dibutyl-2-(2-chloroethyl)malonamide] | > 64 µg/mL | > 64 µg/mL |  |
| Cc1ccc(NC(=O)C(CCCl)C(=O)Nc2ccc(C)c(O)c2)cc1O [SC5029, 2-(2-chloroethyl)-N^1,N^3-bis(3-hydroxy-4-methylphenyl)malonamide] | 8 µg/mL (≈ 21.2 µM) |  |  |
| C=CCC(C(=O)Nc1cc(Cl)cc(Cl)c1)C(=O)Nc1cc(Cl)cc(Cl)c1 [SC5040, 2-allyl-N^1,N^3-bis(3,5-dichlorophenyl)malonamide] | > 32 µg/mL | > 32 µg/mL |  |
| O=C(Nc1cc(Cl)cc(Cl)c1)C(CCCl)C(=O)Nc1cc(C(F)(F)F)cc(C(F)(F)F)c1 (centres unmarked) [SC5036, N^1-(3,5-bis(trifluoromethyl)phenyl)-2-(2-chloroethyl)-N^3-(3,5-dichlorophenyl) malonamide] | 0.25 µg/mL (≈ 0.479 µM) | 0.5 µg/mL (≈ 0.958 µM) |  |
